Laboratory results taken from paper PMC7870626, “Neurotoxicity and underlying cellular changes of 21 mitochondrial respiratory chain inhibitors” (Archives of Toxicology, 2021).
Where two headings read alike, the source gives them in different places.

What was measured:
[1] = system: proteasome; test: Proteasomal activity (KE3 assay) in LUHMES cells; format: cell-based, human; conditions: for Ratios of EC25 KE4/KE3 proteasomal: NeuriTox neurite EC25 relative to proteasomal activity EC25, LUHMES
Procedure: Activity of the proteasome was quantified as described in (Gutbier et al. [2018b]). Briefly, after exposure, culture medium was replaced by assay buffer containing a cell-permeable proteasomal substrate (MeOSuc-Gly-Leu-Phe-AMC, 25 µM (Bachem, Bubendorf, Switzerland) in HBSS). Its AMC-fluorescence (ex: 360 nm, em: 465 nm) increases with proteasomal activity and was monitored for 90 min. Background-corrected data were used for further analysis.

[2] = system: LUHMES cells; format: cell-based, human
Procedure: Cells were cultured and treated as described above for the NeuriTox assay. On d3, after 24 h treatment, culture medium was replaced by 33 µl/well 1 × Biospyder lysis buffer. After 15 min at room temperature, plates were sealed and frozen at -80 °C to complete lysis. Samples were analyzed at Bioclavis (Glasgow) using the TempO-Seq technique and the EU-ToxRisk v2.0 gene probe panel covering ca. 3000 genes (Yeakley et al. [2017]). All genes are listed in the supplementary excel file (containing also all gene regulations). Briefly, a 50 bp fragment of the target gene was amplified. The amplification step also introduced sample-specific barcodes. This allowed pooling of all samples and standard next-generation sequencing of the ensemble. Afterward, adapters were used to allocate the sequenced fragments to the correct samples. Finally, the alignment of all sequenced fragments (FASTQ files) for each sample to the collection of reference 50 bp oligonucleotides was performed for the quantification of reads per gene, also known as the read count values. In a pre-filtering step, samples with a total count < 0.2 million and genes with an average count < 1.5 were removed.
To correct for both read depth and RNA composition, the DESeq2′s median of ratios normalization was applied. The analysis of differentially expressed genes (DEG) of each treatment against the control group was done by the Wald test implemented in DESeq2/R (Love et al. [2014]), including an FDR correction for p-adjusted ≤ 0.05. […] A curve was fit through these concentration–response data to obtain EC10DEG. For comparability, all DEG data were normalized to a positive control. […] The EC10DEG was calculated using an established online open access BMC calculator (BMCeasy) (Krebs et al. [2020]).

[3] = system: MRC complex (cI, cII or cIII); test: HepG2-based MRC complex assay in permeabilized cells (earlier study); format: cell-based; conditions: NeuriTox neurite EC25 relative to complex assay EC25 in permeabilized cells; respirometric data from HepG2-based assays ref van der Stel et al. 2020
[4] = system: SH-SY5Y cells; test: Mitochondrial membrane potential (rhodamine 123), KE2 assay; format: cell-based, human; conditions: for EC25: Homo sapiens; for Ratios of EC25 KE4/KE2 MMP: NeuriTox neurite EC25 relative to SH-SY5Y MMP EC25
Procedure: Cells were plated at a cell density of 29,500 cells/cm^2 and handled as described above for the neurite SH-SY5Y degeneration. On d6 of differentiation, 50% of the medium was replaced by differentiation medium containing 2 µM Rhodamine 123 (ThermoFisher). After 45 min of preloading at 37 °C with 5% CO2 in darkness, the Rhodamine 123 solution was completely removed and cells were carefully washed once with 200 µl DMEM:F12. Subsequently, 50 µl differentiation medium per well were added followed by the addition of 50 µl/well of test compounds in medium. After 24 h of exposure to the test compounds, the nuclei were stained for 30 min with 20 µL of a solution containing 20 µM Hoechst 33342, and the images were then acquired with a 10 × objective lens using the ImageXpress® Micro (Molecular Devices) high content microplate imager. Nuclei were evaluated in the DAPI channel (excitation 377 ± 50 nm, emission 447 ± 60 nm), whereas Rhodamine 123 fluorescence was detected in the FITC channel (excitation 475 ± 34 nm, emission 536 ± 40 nm). Analysis of the Hoechst 33,342 and Rhodamine 123 fluorescence was performed using the MetaXpress® Software (Molecular Devices) with the Transfluor HT plug-in and the parameters nuclei (for Hoechst-33342) and integrated granule intensity (for Rhodamine 123). Mitochondrial membrane potential (MMP) was quantified as the total fluorescence intensity of Rhodamine 123 in relation to the number of Hoechst-stained nuclei.

[5] = system: U2OS cells; test: cells; format: cell-based; conditions: Homo sapiens, 24 h
Procedure: A cell suspension of 100,000 cells/ml was prepared in assay medium, and white 384-well plates were filled with 30 µl/well cell suspension. Twenty-four hours after seeding, a dilution series of test compound, as well as positive and negative controls, were added to the cells. After 24 h exposure, the medium was removed, and 10 µl of Triton X-100 lysis buffer was added to each well. The luminescent signal was determined in a luminometer by injecting BDS Illuminate Mix and measuring the light emission. The Cytotox CALUX cell line constitutively expresses a high level of luciferase protein; the light emission is therefore proportional to the cell number of live cells, and its decrease can be used as measure of cytotoxicity. The light emission generated by cells exposed to vehicle control was set to 100%, and the luminescence of cells exposed to the positive control toxicant tributyltin acetate [100 µM] was set to 0%. The light output of the cells exposed to different concentrations of test compounds was scaled accordingly.

[6] = system: LUHMES cells; test: Intracellular ATP content after NeuriTox exposure; format: cell-based; conditions: Homo sapiens, 24 h
Procedure: The NeuriTox test was performed as previously described (Delp et al. [2018b]; Krug et al. [2013a]; Stiegler et al. [2011]). Briefly, cells differentiated for 48 h were re-seeded into 96-well plates at a density of 100,000 cells/cm^2 in DM without cAMP and GDNF, and treated 1 h after seeding for 24 h. Subsequently, multiple endpoints were determined, e.g., neurite outgrowth (i.e., NeuriTox test), resazurin reduction, intracellular ATP content, gene expression levels from TempO-Seq analysis, and proteasomal activity. For the 120 h exposure scenario, LUHMES cells were differentiated for another 3 days after reseeding before they were treated on day 5 (d5) and d7 by a half medium exchange. Endpoints were determined on d10 of differentiation.
Plates from the NeuriTox test were further used after imaging for determination of alternative endpoints. Intracellular ATP was determined as described earlier (Delp et al. [2019]). In brief, CellTiterGlo 2.0 assay mix (Promega) containing luciferase was added after imaging, and luminescence was recorded. For the determination of resazurin reduction, a 10 × resazurin stock solution was added after imaging to the medium (final resazurin concentration 2 µg/ml) (Delp et al. [2018a]). After 60 min incubation, resazurin fluorescence was recorded (ex: 530 nm, em: 590 nm). Background-corrected data was used for further analysis.

[7] = system: HepG2 cells; test: HepG2-based respirometry, total cell respiration (earlier study); conditions: NeuriTox neurite EC25 relative to cell respiration EC25; respirometric data from HepG2-based assays ref van der Stel et al. 2020
[8] = gene AARS, 0.08 µM, 24 h, vs 0.1% DMSO
[9] = gene AASDHPPT, 0.08 µM, 24 h, vs 0.1% DMSO
[10] = gene AATF, 0.08 µM, 24 h, vs 0.1% DMSO
[11] = gene ABCA1, 0.08 µM, 24 h, vs 0.1% DMSO
[12] = gene ABCA6, 0.08 µM, 24 h, vs 0.1% DMSO
[13] = SH-SY5Y differentiated 6 days, treated 24 h, rhodamine-123, read-out: pEC25 MMP (concentration where MMP was reduced by 25%) (converted)
[14] = U2OS osteosarcoma cells, luminescence of constitutively expressed luciferase, read-out: Cytotox EC25 U2OS (converted)
[15] = NeuriTox exposure scheme, read-out: LUHMES 24 h EC25 ATP (converted)
[16] = gene AARS, 0.20 µM, 24 h, vs 0.1% DMSO
[17] = gene AASDHPPT, 0.20 µM, 24 h, vs 0.1% DMSO
[18] = gene AATF, 0.20 µM, 24 h, vs 0.1% DMSO
[19] = gene ABCA1, 0.20 µM, 24 h, vs 0.1% DMSO
[20] = gene ABCA6, 0.20 µM, 24 h, vs 0.1% DMSO

## CCOCCc1ccc(OCCN=c2[nH]cnc(CC)c2Cl)c(C)c1C [Pyrimidifen]
[1]
  Ratios of EC25 KE4/KE3 proteasomal: 1.1
[2]; [8]
  log2FoldChange AARS: -0.45 log2
[2]; [9]
  log2FoldChange AASDHPPT: 0.72 log2
[2]; [10]
  log2FoldChange AATF: -0.0132 log2
[2]; [11]
  log2FoldChange ABCA1: -1.62 log2
[2]; [12]
  log2FoldChange ABCA6: 0.65 log2
[3]
  Ratios of EC25 KE4/KE1 complex assay: 15850
[4]; [13]
  EC25: 0.794 µM
[4]
  Ratios of EC25 KE4/KE2 MMP: 21
[5]; [14]
  EC25: 100 µM
[6]; [15]
  EC25: 20 µM
[7]
  Ratios of EC25 KE4/KE1 total respiration: 1260

## Cc1ccc(-c2c(Cl)nc(C#N)n2S(=O)(=O)N(C)C)cc1 [Cyazofamid]
[2]; gene AARS, 0.00781 µM, 24 h, vs 0.1% DMSO
  log2FoldChange AARS: -1.30 log2
[2]; gene AASDHPPT, 0.00781 µM, 24 h, vs 0.1% DMSO
  log2FoldChange AASDHPPT: 1.09 log2
[2]; gene AATF, 0.00781 µM, 24 h, vs 0.1% DMSO
  log2FoldChange AATF: -0.24 log2
[2]; gene ABCA1, 0.00781 µM, 24 h, vs 0.1% DMSO
  log2FoldChange ABCA1: -1.98 log2
[2]; gene ABCA6, 0.00781 µM, 24 h, vs 0.1% DMSO
  log2FoldChange ABCA6: 0.44 log2
[3]
  Ratios of EC25 KE4/KE1 complex assay: < 5
[4]; [13]
  EC25: 0.2 µM
[4]
  Ratios of EC25 KE4/KE2 MMP: 225
[5]; [14]
  EC25: 100 µM
[6]; [15]
  EC25: > 50.1 µM

## C=C(C)[C@H]1Cc2c(ccc3c2O[C@@H]2COc4cc(OC)c(OC)cc4[C@@H]2C3=O)O1 [Rotenone]
[1]; LUHMES
  Potency on neurotoxicity (KE4/AO) relative to proteostasis (KE3): 100 times
[1]
  Ratios of EC25 KE4/KE3 proteasomal: 0.01
[1]; d2 LUHMES, 22 h incubation
  Proteasomal function (in words): reduced proteasome function at non-cytotoxic concentrations
[2]
  log2FoldChange AARS: -0.41 log2
  log2FoldChange AASDHPPT: 0.79 log2
  log2FoldChange AATF: -0.42 log2
  log2FoldChange ABCA1: -0.98 log2
  log2FoldChange ABCA6: -0.24 log2
[3]
  Ratios of EC25 KE4/KE1 complex assay: 7.9
[4]; SH-SY5Y, 24 h, read-out: pEC25 MMP (concentration where MMP was reduced by 25%)
  EC25: 0.0398 µM
[4]
  Ratios of EC25 KE4/KE2 MMP: 2.1
[5]; U2OS, read-out: Cytotox EC25 U2OS
  EC25: 31.6 µM
[6]; read-out: LUHMES 24 h EC25 ATP
  EC25: 5.01 µM
[7]
  Ratios of EC25 KE4/KE1 total respiration: 1.3

## CC1=C(C(=O)Nc2ccccc2)SCCO1 [Carboxin]
[1]
  Ratios of EC25 KE4/KE3 proteasomal: < 0.8
[2]; [16]
  log2FoldChange AARS: -0.12 log2
[2]; [17]
  log2FoldChange AASDHPPT: 0.26 log2
[2]; [18]
  log2FoldChange AATF: 0.0462 log2
[2]; [19]
  log2FoldChange ABCA1: -0.37 log2
[2]; [20]
  log2FoldChange ABCA6: 0.78 log2
[3]
  Ratios of EC25 KE4/KE1 complex assay: 32
[4]; [13]
  EC25: 1.58 µM
[4]
  Ratios of EC25 KE4/KE2 MMP: 48
[4]; SH-SY5Y, 24 h, non-cytotoxic concentrations
  Decrease of the MMP reached: at least 50%
[5]; [14]
  EC25: > 100 µM
[6]; [15]
  EC25: > 100 µM
[7]
  Ratios of EC25 KE4/KE1 total respiration: < 8

## CCCCCC[C@H]1C(=O)O[C@H](C)[C@H](NC(=O)c2cccc(NC=O)c2O)C(=O)O[C@@H](C)[C@@H]1OC(=O)CC(C)C [Antimycin A]
[1]
  Ratios of EC25 KE4/KE3 proteasomal: 1.1
[2]; [8]
  log2FoldChange AARS: -0.20 log2
[2]; [9]
  log2FoldChange AASDHPPT: -0.32 log2
[2]; [10]
  log2FoldChange AATF: 0.18 log2
[2]; [11]
  log2FoldChange ABCA1: -0.64 log2
[2]; [12]
  log2FoldChange ABCA6: 1.98 log2
[3]
  Ratios of EC25 KE4/KE1 complex assay: 1580
[4]; [13]
  EC25: 0.0631 µM
[4]
  Ratios of EC25 KE4/KE2 MMP: 257
[5]; [14]
  EC25: 100 µM
[6]; [15]
  EC25: 25.1 µM
[7]
  Ratios of EC25 KE4/KE1 total respiration: 1580

## Cc1ccccc1C(=O)Nc1cccc(OC(C)C)c1 [Mepronil]
[1]
  Ratios of EC25 KE4/KE3 proteasomal: > 0.8
[2]; [16]
  log2FoldChange AARS: 0.46 log2
[2]; [17]
  log2FoldChange AASDHPPT: 0.19 log2
[2]; [18]
  log2FoldChange AATF: 0.22 log2
[2]; [19]
  log2FoldChange ABCA1: 0.65 log2
[2]; [20]
  log2FoldChange ABCA6: 0.20 log2
[3]
  Ratios of EC25 KE4/KE1 complex assay: > 5.0
[4]; [13]
  EC25: 5.01 µM
[5]; [14]
  EC25: > 100 µM
[6]; [15]
  EC25: > 100 µM

## COc1cc(CNC(=O)CCCC/C=C/C(C)C)ccc1O [Capsaicin]
[2]; gene AARS, 0.10 µM, 24 h, vs 0.1% DMSO
  log2FoldChange AARS: -0.12 log2
[2]; gene AASDHPPT, 0.10 µM, 24 h, vs 0.1% DMSO
  log2FoldChange AASDHPPT: 0.45 log2
[2]; gene AATF, 0.10 µM, 24 h, vs 0.1% DMSO
  log2FoldChange AATF: -0.07 log2
[2]; gene ABCA1, 0.10 µM, 24 h, vs 0.1% DMSO
  log2FoldChange ABCA1: -0.65 log2
[2]; gene ABCA6, 0.10 µM, 24 h, vs 0.1% DMSO
  log2FoldChange ABCA6: -2.67 log2
[4]; [13]
  EC25: > 10 µM
[5]; [14]
  EC25: 63.1 µM
[6]; [15]
  EC25: > 50.1 µM
